From patent US10787447B2, “Pharmaceutical compounds” (Heptares Therapeutics Limited, priority 2018, dated 2020)
pEC50: −log10 of the molar value.

What was measured:
Assay type in all cases: cell-based
[1] = biological target: T1, human muscarinic M1 receptor (Homo sapiens, UniProt P11229); assay: Alphascreen Surefire phospho-ERK1/2 functional assay, M1; conditions: for % Emax cf. ACh, M1: CHO cells stably expressing human M1; for pEC50: pEC50 M1, CHO cells stably expressing human M1, phospho-ERK1/2
T1 sequence (P11229 1-460): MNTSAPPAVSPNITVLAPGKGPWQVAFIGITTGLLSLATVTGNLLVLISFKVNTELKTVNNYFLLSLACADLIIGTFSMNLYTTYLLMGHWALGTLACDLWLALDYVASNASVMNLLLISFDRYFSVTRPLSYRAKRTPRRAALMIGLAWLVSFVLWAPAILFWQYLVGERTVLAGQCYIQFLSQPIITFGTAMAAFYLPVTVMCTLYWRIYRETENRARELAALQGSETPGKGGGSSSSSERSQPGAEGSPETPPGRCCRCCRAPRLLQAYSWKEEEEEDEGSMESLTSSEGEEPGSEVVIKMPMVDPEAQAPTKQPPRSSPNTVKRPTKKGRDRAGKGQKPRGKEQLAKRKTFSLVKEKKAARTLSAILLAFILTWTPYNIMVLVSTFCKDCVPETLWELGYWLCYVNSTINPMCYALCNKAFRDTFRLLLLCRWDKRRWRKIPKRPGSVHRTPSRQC
In short: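 Stably transfected CHO cells, serum-starved overnight, then exposed to agonist for 5 min at 37 °C. Cells lysed and phospho-ERK1/2 measured by AlphaScreen SureFire.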

[2] = biological target: T2, human muscarinic M2 receptor (Homo sapiens, UniProt P08172); assay: Alphascreen Surefire phospho-ERK1/2 functional assay, M2; conditions: for % Emax cf. ACh, M2: CHO cells stably expressing human M2; for pEC50: pEC50 M2, CHO cells stably expressing human M2, phospho-ERK1/2
T2 sequence (P08172 1-466): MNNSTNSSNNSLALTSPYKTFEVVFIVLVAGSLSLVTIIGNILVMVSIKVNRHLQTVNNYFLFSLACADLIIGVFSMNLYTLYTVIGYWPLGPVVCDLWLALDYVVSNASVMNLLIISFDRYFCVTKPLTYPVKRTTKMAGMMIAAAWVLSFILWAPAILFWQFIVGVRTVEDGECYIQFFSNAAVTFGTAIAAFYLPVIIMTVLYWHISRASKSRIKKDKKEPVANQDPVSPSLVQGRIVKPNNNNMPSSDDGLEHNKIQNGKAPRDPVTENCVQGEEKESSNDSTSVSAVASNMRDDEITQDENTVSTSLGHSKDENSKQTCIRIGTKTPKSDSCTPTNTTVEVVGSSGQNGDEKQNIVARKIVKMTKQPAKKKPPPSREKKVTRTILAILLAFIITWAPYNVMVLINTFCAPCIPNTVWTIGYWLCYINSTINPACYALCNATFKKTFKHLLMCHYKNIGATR
Description: (§1) ERK1/2 phosphorylation is a downstream consequence of both Gq/11 and Gi/o protein coupled receptor activation, making it highly suitable for the assessment of M1, M3 (Gq/11 coupled) and M2, M4 receptors (Gi/o coupled), rather than using different assay formats for different receptor subtypes. CHO cells stably expressing the human muscarinic M1, M2, M3 or M4 receptor were plated (25K/well) onto 96-well tissue culture plates in MEM-alpha+10% dialysed FBS. Once adhered, cells were serum-starved overnight. Agonist stimulation was performed by the addition of 5 μL agonist to the cells for 5 min (37° C.). Media was removed and 50 μL of lysis buffer added. After 15 min, a 4 μL sample was transferred to 384-well plate and 7 μL of detection mixture added.
(§2) Isomer assignment (Isomer 1, Isomer 2, etc.) is based on the retention time of the compound using the separation technique that was performed in the final purification step. By implication, this could be reversed phase HPLC, chiral HPLC or chiral SFC retention time, and this will vary from compound to compound.

[3] = biological target: T3, human muscarinic M3 receptor (Homo sapiens, UniProt P20309); assay: Alphascreen Surefire phospho-ERK1/2 functional assay, M3; conditions: for % Emax cf. ACh, M3: CHO cells stably expressing human M3; for % Emax cf. ACh, M3 / Emax: Emax relative to ACh; for Emax: CHO, read-out: % Emax cf. ACh, M3, CHO cells stably expressing human M3; for pEC50: pEC50 M3, CHO cells stably expressing human M3, phospho-ERK1/2
T3 construct: expressed in transfected cells
Description: as §1, §2

[4] = biological target: T4, human muscarinic M4 receptor (Homo sapiens, UniProt P08173); assay: Alphascreen Surefire phospho-ERK1/2 functional assay, M4; conditions: for % Emax cf. ACh, M4: CHO cells stably expressing human M4; for pEC50: pEC50 M4, CHO cells stably expressing human M4, phospho-ERK1/2
T4 sequence (P08173 1-479): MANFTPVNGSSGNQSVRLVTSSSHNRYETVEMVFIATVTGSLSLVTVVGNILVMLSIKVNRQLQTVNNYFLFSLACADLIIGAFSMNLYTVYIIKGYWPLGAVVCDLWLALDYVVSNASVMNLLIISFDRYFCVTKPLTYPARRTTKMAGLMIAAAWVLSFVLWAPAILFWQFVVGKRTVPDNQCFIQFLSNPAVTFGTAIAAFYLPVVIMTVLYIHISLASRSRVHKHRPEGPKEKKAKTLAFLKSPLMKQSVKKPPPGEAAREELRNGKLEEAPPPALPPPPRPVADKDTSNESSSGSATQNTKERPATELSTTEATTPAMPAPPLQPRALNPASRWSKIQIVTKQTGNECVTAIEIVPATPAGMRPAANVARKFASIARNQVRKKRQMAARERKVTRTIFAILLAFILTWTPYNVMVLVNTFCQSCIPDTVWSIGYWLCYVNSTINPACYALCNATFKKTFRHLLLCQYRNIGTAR
In short: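 CHO cells stably expressing human M1, M2, M3 or M4 receptor, serum-starved overnight, then stimulated with agonist for 5 min at 37 °C. Cells lysed for 15 min and phospho-ERK1/2 detected in the lysate by AlphaScreen SureFire.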

[5] = Emax relative to ACh, listed as 2-2 Isomer 2
[6] = Emax relative to ACh, listed as 6-1 Isomer 2
[7] = Emax relative to ACh, listed as 6-4 Isomer 2
[8] = Emax relative to ACh, listed as 2-3 Isomer 1
[9] = Emax relative to ACh, listed as 2-3 Isomer 2
[10] = Emax relative to ACh, listed as 6-5 Isomer 2
[11] = Emax relative to ACh, listed as 4-1 Isomer 1
[12] = Emax relative to ACh, listed as 6-6 Isomer 1

T3 sequence (P20309 whole entry): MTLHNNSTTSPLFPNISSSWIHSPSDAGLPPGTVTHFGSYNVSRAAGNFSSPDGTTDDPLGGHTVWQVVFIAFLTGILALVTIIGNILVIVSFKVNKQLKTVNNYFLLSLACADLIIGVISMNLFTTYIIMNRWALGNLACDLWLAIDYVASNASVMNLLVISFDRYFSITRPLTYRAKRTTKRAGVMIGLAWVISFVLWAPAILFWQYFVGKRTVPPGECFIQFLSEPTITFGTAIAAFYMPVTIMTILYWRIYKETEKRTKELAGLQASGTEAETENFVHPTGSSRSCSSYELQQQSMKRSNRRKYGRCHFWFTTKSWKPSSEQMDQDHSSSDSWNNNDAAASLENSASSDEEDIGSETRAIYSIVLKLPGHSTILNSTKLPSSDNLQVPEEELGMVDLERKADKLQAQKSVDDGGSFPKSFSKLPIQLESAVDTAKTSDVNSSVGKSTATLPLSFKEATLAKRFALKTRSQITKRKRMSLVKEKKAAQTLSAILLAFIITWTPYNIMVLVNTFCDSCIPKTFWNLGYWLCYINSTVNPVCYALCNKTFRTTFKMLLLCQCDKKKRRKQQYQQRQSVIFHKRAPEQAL

| Compound | pEC50 [4] | pEC50 [1] | pEC50 [2] | Emax [3] [%] | pEC50 [3] | also measured |
| --- | --- | --- | --- | --- | --- | --- |
| CCOC(=O)N1C2COCC1CC(N1CCC(c3cccnc3OC)CC1)C2 (single isomer, unassigned) [Example 2-2 Isomer 2, Ethyl 7-[4-(2-methoxypyridin-3-yl)piperidin-1-yl]-3-oxa-9-azabicyclo[3.3.1]nonane-9-carboxylate] | 6.95 |  |  |  |  | % Emax cf. ACh, M1 [1, 5]: 10%; % Emax cf. ACh, M2 ([2]; Emax relative to ACh): 3%; % Emax cf. ACh, M3 [3]: 5%; % Emax cf. ACh, M4 [4, 5]: 37% |
| CCOC(=O)N1C2COCC1CC(N1CCC(N(CC(C)C)C(C)=O)CC1)C2 (single isomer, unassigned) [Example 6-1 Isomer 2, Ethyl 7-{4-[acetyl(2-methylpropyl)amino]piperidin-1-yl}-3-oxa-9-azabicyclo[3.3.1]nonane-9-carboxylate] | 7.76 | 7.21 | 6.49 |  |  | % Emax cf. ACh, M1 ([1]; Emax relative to ACh): 102%; % Emax cf. ACh, M2 [2, 6]: 90%; % Emax cf. ACh, M3 ([3]; listed as 6-1 Isomer 2): 62%; % Emax cf. ACh, M4 [4, 6]: 111% |
| CCOC(=O)N1C2COCC1CC(N1CCC(n3cccn3)CC1)C2 (single isomer, unassigned) [Example 1-1 Isomer 1, Ethyl 7-[4-(1H-pyrazol-1-yl)piperidin-1-yl]-3-oxa-9-azabicyclo[3.3.1]nonane-9-carboxylate] | 7.28 | 6.37 | 6.24 | 13 | < 4.70 | Emax ([1]; CHO, read-out: % Emax cf. ACh, M1, CHO cells stably expressing human M1, Emax relative to ACh): 116%; Emax ([2]; CHO, read-out: % Emax cf. ACh, M2, CHO cells stably expressing human M2, Emax relative to ACh): 57%; Emax ([4]; CHO, read-out: % Emax cf. ACh, M4, CHO cells stably expressing human M4, Emax relative to ACh): 100% |
| CCOC(=O)N1C2COCC1CC(N1CCC(N(CC3(C)CCC3)C(C)=O)CC1)C2 (single isomer, unassigned) [Example 6-4 Isomer 2, Ethyl 7-(4-{acetyl[(1-methylcyclobutyl)methyl]amino}piperidin-1-yl)-3-oxa-9-azabicyclo[3.3.1]nonane-9-carboxylate] | 6.69 | 7.47 | < 4.70 | 19 | < 4.70 | % Emax cf. ACh, M1 [1, 7]: 72%; % Emax cf. ACh, M2 [2, 7]: 15%; % Emax cf. ACh, M4 [4, 7]: 38% |
| CCOC(=O)N1C2COCC1CC(N1CCC(c3ccc[nH]c3=O)CC1)C2 (single isomer, unassigned) [Example 2-3 Isomer 1, Ethyl 7-[4-(2-oxo-1,2-dihydropyridin-3-yl)piperidin-1-yl]-3-oxa-9-azabicyclo[3.3.1]nonane-9-carboxylate] | 8.19 | 6.71 | 6.54 | 9 | < 4.70 | % Emax cf. ACh, M1 [1, 8]: 77%; % Emax cf. ACh, M2 [2, 8]: 45%; % Emax cf. ACh, M4 [4, 8]: 99% |
| CCOC(=O)N1C2COCC1CC(N1CCC(c3ccc[nH]c3=O)CC1)C2 (single isomer, unassigned) [Example 2-3 Isomer 2, Ethyl 7-[4-(2-oxo-1,2-dihydropyridin-3-yl)piperidin-1-yl]-3-oxa-9-azabicyclo[3.3.1]nonane-9-carboxylate] | 7.94 | 6.76 | < 4.70 |  |  | % Emax cf. ACh, M1 [1, 9]: 34%; % Emax cf. ACh, M2 [2, 9]: 10%; % Emax cf. ACh, M3 [3]: 5%; % Emax cf. ACh, M4 [4, 9]: 65% |
| CCOC(=O)N1C2COCC1CC(N1CCC(N(Cc3ccccc3)C(C)=O)CC1)C2 (single isomer, unassigned) [Example 6-5 Isomer 2, Ethyl 7-{4-[acetyl(benzyl)amino]piperidin-1-yl}-3-oxa-9-azabicyclo[3.3.1]nonane-9-carboxylate] | 6.84 | 7.80 | 5.63 |  | 5.55 | % Emax cf. ACh, M1 ([1]; Emax relative to ACh): 91%; % Emax cf. ACh, M2 [2, 10]: 68%; % Emax cf. ACh, M3 ([3]; listed as 6-5 Isomer 2): 83%; % Emax cf. ACh, M4 [4, 10]: 73% |
| CCOC(=O)N1C2COCC1CC(N1CCC(N3CC(F)(F)C[C@@H]3CO)CC1)C2 (single isomer, unassigned) [Example 4-1 Isomer 1] | 7.51 | 6.81 | 6.60 |  | < 4.70 | % Emax cf. ACh, M1 [1, 11]: 108%; % Emax cf. ACh, M2 [2, 11]: 87%; % Emax cf. ACh, M3 ([3]; listed as 4-1 Isomer 1): 11%; % Emax cf. ACh, M4 [4, 11]: 114% |
| CCOC(=O)N1C2COCC1CC(N1CCC(N3CCCCC3=O)CC1)C2 (single isomer, unassigned) [Example 6-6 Isomer 1, Ethyl 7-(2-oxo-1,4′-bipiperidin-1′-yl)-3-oxa-9-azabicyclo[3.3.1]nonane-9-carboxylate] | 7.72 | 6.60 | 6.47 |  | < 4.70 | % Emax cf. ACh, M1 [1, 12]: 103%; % Emax cf. ACh, M2 [2, 12]: 60%; % Emax cf. ACh, M3 ([3]; listed as 6-6 Isomer 1): 7%; % Emax cf. ACh, M4 [4, 12]: 109% |
